The text below walks through data of patent publication US11865098B1, “Methods and compositions for treating excessive sleepiness” (Axsome Malta Ltd., priority 2017, dated 2024).

The subject of the experiment is adult patients with OSA and ES. Description: SF-36v2 health-related quality of life, 12-week parallel study in OSA. The experiment is classed as in vivo, human. The conditions noted are these: week 12. As for the experimental part: This was a 12-week, double-blind, placebo-controlled, parallel-design study. Patients were randomized (1:1:2:2:2) to APC 37.5 mg, 75 mg, 150 mg, or 300 mg, or placebo for 12 weeks, and were stratified by adherence or nonadherence with primary OSA therapy.
The SF-36 v2 consists of 2 summary scales (Physical Component Summary and Mental Component Summary) and 8 specific health status domains (Physical Function, Role Physical, Bodily Pain, General Health, Vitality, Social Functioning, Role Emotional, Mental Health) (Ware Jr et al., User's Manual for the SF-36v2™ Health Survey (2nd ed). QualityMetric Incorporated (Lincoln, RI); 2007). The EQ-5D-5L consists of 5 questions/dimensions (Mobility, Self-care, Usual Activities, Pain/Discomfort, and Anxiety/Depression) that have 5 response levels each (no problems, slight problems, moderate problems, severe problems, and extreme problems/unable to do) that are used to derive an overall EQ-5D-5L index score (0=death, 1=perfect health), and a health status visual analog scale (VAS) that is anchored at 0 with “the worst health you can imagine” and at 100 with “the best health you can imagine.” (The EuroQol Group. EQ-5D-5L User Guide. Version 2.1. April 2015. www.eurogol.org/fileadmin/user_upload/Documenten/PDF/Folders_Flyers/EQ-5D-5L_UserGuide_2015.pdf)
Efficacy analyses were based on the modified intent-to-treat (mITT) population; there was no multiplicity adjustment for the SF-36 v2 or EQ-5D-5L. SF-36 v2 scores were scaled from 0 to 100 (higher scores on all scales represent better health), transformed to norm-based scores using US general-population data from SF-36 Manuals (Ware Jr et al., User's Manual for the SF-36v2™ Health Survey (2nd ed.). QualityMetric Incorporated (Lincoln, RI); 2007), and were analyzed using a mixed-effect model with repeated measures (MMRM); and baseline value of the efficacy endpoint was used to determine differences in changes from baseline. EQ-5D-5L VAS and index-score data were analyzed using an MMRM model. Safety and tolerability were assessed based on treatment-emergent adverse events (TEAEs), vital signs, electrocardiogram test, physical exams, and laboratory tests.

As for `NC(=O)OC[C@H](N)Cc1ccccc1` [JZP-110, (R)-2-amino-3-phenylpropyl carbamate], the “SF-36v2 Physical and Mental Component Summary changes vs MCID” value was “did not exceed the minimal clinically important difference”. The “SF-36v2 Role Physical, General Health, Social Functioning, Role Emotional vs placebo” value (150 mg) is given as “significantly greater changes from baseline relative to placebo”. Also, for the setting “300 mg”, the “SF-36v2 Role Physical and Vitality domains and Physical Component Summary Scale vs placebo” value is on record as “significantly greater improvements relative to placebo”. The “SF-36v2 Mental Component Summary scores vs placebo” value (37.5, 75, 150 mg similar) is on record as “only APC 150 mg reaching statistical significance”. In addition, the “SF-36v2 Vitality domain, response vs MCID” value (75, 150, and 300 mg) was “exceeded the MCID”. In addition, for the setting “150 and 300 mg”, the “SF-36v2 Physical Component Summary Scale, increase vs placebo” value is recorded as “statistically significant” and the “SF-36v2 Vitality domain vs placebo” value is listed as “statistically significant improvements relative to placebo”.
